Assay results: US20070275935A1, “Estratriene Derivatives” (priority 2003, published 2007)

Tests used:
[1] = tested on: type II airway epithelial cell line, A549; assay: Proliferation of A549 cells in response to 5% FCS; type: cell-based, human; settings: Homo sapiens, A549; proliferation in response to 5% FCS; pIC50 of 4.00 = inactive; read-out: A549 PIC50 (converted)
Method: The effects of 4NO were evaluated in a number of non-smooth muscle cell types including the type II airway epithelial cell line, A549 (ATCC accession number ATCC CCL-185 Lung carcinoma human) (FIG. 2); the human breast tumour cell line, MCF7, (ATTC accession number ATCC HTB-22 breast adenocarcinoma, human) which expresses the estrogen receptor (FIG. 3); and in bovine aortic endothelial cells (BAEC) (FIG. 4).
The effects of test compounds were examined on proliferation of A549 cells in response to 5% fetal calf serum (FCS). Analogues were pre-incubated with A549 cells for 30 min before the addition of FCS. The incubation continued for 48 h before cell enumeration. Data are expressed as a percentage of the cell number in vehicle treated wells and are presented as the mean and standard error of the mean. Similarly the effects of 2MEO and 4NO on proliferation of MCF7 in response to 5% FCS or epidermal growth factor (EGF, 300 pM) were examined, as were the effects of 2MEO and 4NO on proliferation of BAEC in response to 5% FCS. The incubation parameters were the same as described above and results are presented as the mean and standard error of the mean.
This assay was also used to evaluate the ability of other compounds to inhibit the proliferation of non-smooth muscle cells MCF7 and A549 (described above) in response to 5% FCS. The results of this assay are presented in Table 4 (columns G and H respectively). The potency of the compounds was considerably less in inhibiting proliferation of these cell lines than it was for HASM. These observations support the contention that there are cell type-specific targets for the actions of these compounds. Such assays may also be adopted to examine the effect of other disclosed compounds on these cells or on other non-smooth muscle cells of interest.

[2] = tested on: Human airway smooth muscle (HASM) cells; assay: Thrombin-induced proliferation of human airway smooth muscle (HASM) cells, cell number after 48 h; type: cell-based; settings: for IC50: Homo sapiens, negative log of the concentration that reduces the thrombin-induced proliferative response by 50%, pIC50 of 4.00 = inactive, read-out: HASM-Thr pIC50 (converted); for HASM- Thr pIC25 / HASM- Thr pIC75: two site model, thrombin-induced proliferation; for HASM- Thr pIC25: first phase (inhibition up to 50%); for HASM- Thr pIC75: second phase (inhibition up to 100%)
Method: Human airway smooth muscle (HASM) cells were cultured from macroscopically normal bronchi (0.5-2 cm diameter) obtained from lung resection or heart-lung transplant specimens provided by the Alfred Hospital (Melbourne) according to methods published in detail previously (Fernandes et al., 1999).
Approximately 0.1 g of smooth muscle was stripped from the wall of the bronchus for each cell culture. Dissected tissue was immersed in Dulbecco's modified Eagle's medium (DMEM) (Flow Laboratories, Scotland), supplemented with 100 U/mL penicillin G (CSL, Australia) and 100 ug/mL streptomycin (CSL, Australia). The tissue was rinsed in phosphate buffered saline (PBS; Oxoid, England) and the airway smooth muscle was chopped into 2 mm^3 pieces and digested for 2 hours in DMEM containing elastase (0.5 mg/mL: Worthington Biochemical, USA) followed by a 12 hour incubation in DMEM containing collagenase (1 mg/mL) (Worthington Biochemical, USA), at 37° C. with agitation.
The resulting cell suspension was centrifuged and washed three times in phosphate buffered saline (PBS). Following the last centrifugation step, the cells were resuspended in 25 mL of DMEM supplemented with L-glutamine (2 mM: Sigma, USA), penicillin G (100 U/mL), streptomycin (100 μg/mL), amphotericin B (2 μg/mL: Wellcome, UK) and heat-inactivated FCS (10% v/v: CSL, Australia) and seeded into 25 cm^2 culture flasks. The primary isolates were incubated for 7 to 14 days to reach confluence.
Cells were harvested weekly by 10 min exposure to trypsin (0.5%: CSL, Australia) and EDTA (1 mM in PBS: BDH, Australia) and passaged at a 1:3 ratio into 75 cm^2 flasks.
The activity of the compounds has been established in cell culture by exploring their effects on mitogen-induced increases in cell number. We investigated the effects of 2MEO and its analogues, 4NO and 4NOM, on the proliferation of HASM cells in response to the proliferative stimulus of either thrombin of basic fibroblast growth factor (bFGF). Cells were seeded onto 6-well plates at a density of 1.5×10^4 cells cm^2, made quiescent by removal of serum-containing media for 24 hours and then stimulated for 48 h with either thrombin (0.3 U/ml) or bFGF (300 pM). The test compounds were pre-incubated with HASM cells for 30 minutes before the addition of thrombin. At the end of the 48 hour incubation period, cells were detached from the culture plate by trypsin (0.5% w/v in PBS containing 1 mM EDTA), incubated for 5 minutes at ambient temperature in PBS containing 0.5% (w/v) trypan blue, washed twice (2% FCS in PBS), isolated by centrifugation (12,000×g, 5 min) and resuspended in 200 μl 2% FCS in PBS for counting in a haemocytometer chamber.
Data are expressed as a percentage of the cell number in vehicle treated wells and are presented as the mean and standard error of the mean.
The potency of the compounds in regulating thrombin-induced proliferation of human airway smooth muscle (HASM) was assessed in cells maintained in culture as described above. The potencies are presented as pIC50 values (Column A of Table 4) denoting the negative log of the concentration that reduces the proliferative response by 50%. […] When the single phase model was determined to be more appropriate, the values of pIC25 and pIC75 were not calculated or shown in the table.

Estrogen Receptor (ER) = target: T1, Estrogen Receptor (ER) (Rattus norvegicus, UniProt P06211); assay: Estrogen receptor binding assay, 3H-estradiol displacement from rat uterine cytosol; settings: 3H-estradiol displacement, cytosolic preparations of rat uterus; pIC50 of 4.00 = inactive; read-out: ER-RLB pIC50 (converted)
T1 construct: using rat uterine cytosol as a source of ER; from tissue; host or cells: rat uterus, cytosol fraction (30000 x g supernatant)
T1 sequence (P06211 1-600): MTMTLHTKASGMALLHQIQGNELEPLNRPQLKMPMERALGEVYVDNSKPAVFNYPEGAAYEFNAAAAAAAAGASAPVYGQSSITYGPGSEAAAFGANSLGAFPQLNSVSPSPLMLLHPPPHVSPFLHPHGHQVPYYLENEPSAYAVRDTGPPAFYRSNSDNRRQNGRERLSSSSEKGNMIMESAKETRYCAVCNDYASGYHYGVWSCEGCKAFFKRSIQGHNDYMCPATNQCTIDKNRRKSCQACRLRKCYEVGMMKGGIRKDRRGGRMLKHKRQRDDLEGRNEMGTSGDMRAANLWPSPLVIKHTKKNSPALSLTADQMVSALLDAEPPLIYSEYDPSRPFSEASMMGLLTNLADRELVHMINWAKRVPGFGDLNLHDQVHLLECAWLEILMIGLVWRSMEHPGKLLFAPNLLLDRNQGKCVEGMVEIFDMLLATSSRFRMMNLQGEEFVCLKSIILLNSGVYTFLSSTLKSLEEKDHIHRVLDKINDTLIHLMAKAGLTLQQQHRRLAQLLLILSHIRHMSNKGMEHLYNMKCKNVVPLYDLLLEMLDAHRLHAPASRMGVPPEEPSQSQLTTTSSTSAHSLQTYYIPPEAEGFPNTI
Method: Uteri (6-10 per batch) were isolated from Brown Norway rats (250-350g), washed free from blood in saline and homogenised in 10 mM Tris buffer (pH 7.4, 1.5 mM EDTA, 10% w/v glycerol, 1 mM phenylmethylsulfonylfluoride) using an Ultra Turrax homogeniser for 3 by 15 s bursts with intervals of 1 min on ice.
Nuclear material and cellular debris were removed by centrifugation at 750×g at 4° C. for 10 min (Sorvall RT7); the cytosol component was prepared by centrifugation at 30000×g for 120 min at 4° C. in a Beckman JM1 centrifuge. The cytosol was diluted to approximately 1 mg/ml protein (rat uterine extract) determined using the Bradford method (Biorad).
Separation of bound from free radioligand was achieved by the addition of 500 μL of dextran-coated charcoal (400 mg dextran clinical grade C and 2g of charcoal, Norit A in 100 mL of Tris buffer) and centrifugation at 4° C. in a Sorval RT7 at 2000×g for 10 min.

| Structure (SMILES) | IC50 [1] [nM] | IC50 [2] [nM] | IC50 (Estrogen Receptor (ER)) [nM] | HASM- Thr pIC25 [2] | HASM- Thr pIC75 [2] |
| --- | --- | --- | --- | --- | --- |
| COc1cc2c(cc1O)/C(=N/OCc1ccccc1[N+](=O)[O-])C[C@@H]1[C@@H]2CC[C@]2(C)/C(=N/O)CC[C@@H]12 [CP-DM-3-117, 2-methoxy-6-(2-nitrobenzyloxy)iminoestrone-17-oxime] | 5130 | 6460 | – | – | – |
| COc1cc2c(cc1O)/C(=N/OCc1cccc(C(F)(F)F)c1)C[C@@H]1[C@@H]2CC[C@]2(C)/C(=N/O)CC[C@@H]12 [CP-DM-3-118, 2-methoxy-6-(3-trifluoromethylbenzyloxy)iminoestrone-17-oxime] | – | 2950 | 20900 | – | – |
| COc1cc2c(cc1O)/C(=N/OCc1ccccc1[N+](=O)[O-])C[C@@H]1[C@@H]2CC[C@]2(C)[C@@H](O)CC[C@@H]12 [CP-DM-3-124, 2-methoxy-6-(2-nitrobenzyloxy)iminoestradiol] | – | 44.7 | 891 | 9.35 | 6.36 |
| COc1cc2c(cc1O)/C(=N/OCc1ccncc1)C[C@@H]1[C@@H]2CC[C@]2(C)[C@@H](O)CC[C@@H]12 [CP-DM-4-16, 2-methoxy-6-(4-pyridylmethyloxy)iminoestradiol] | – | 1450 | – | 6.57 | 5.19 |
| COc1cc2c(cc1O)/C(=N/OCc1ccc(C#N)cc1)C[C@@H]1[C@@H]2CC[C@]2(C)[C@@H](O)CC[C@@H]12 [CP-DM-4-37, 6-(4-cyanobenzyloxy)imino-2-methoxyestradiol] | – | 12900 | 6460 | – | – |
| COc1cc2c(cc1O)/C(=N/OCc1cccc(C#N)c1)C[C@@H]1[C@@H]2CC[C@]2(C)/C(=N/O)CC[C@@H]12 [CP-DM-4-51, 2-methoxy-6-(3-cyanobenzyloxy)iminoestrone-17-oxime] | – | 4370 | 34700 | 5.46 | 5.26 |
| COc1cc2c(cc1O)/C(=N/OCc1cccc(C#N)c1)C[C@@H]1[C@@H]2CC[C@]2(C)[C@@H](O)CC[C@@H]12 [CP-DM-4-52, 2-methoxy-6-(3-cyanobenzyloxy)iminoestradiol] | – | 955 | 398 | – | – |
| COc1cccc(CO/N=C2\C[C@@H]3[C@H](CC[C@]4(C)[C@@H](O)CC[C@@H]34)c3cc(OC)c(O)cc32)c1 [CP-DM-4-62, 2-methoxy-6-(3-methoxybenzyloxy)iminoestradiol] | – | 2190 | 1000 | 5.69 | 5.63 |
| COc1cc2c(cc1O)/C(=N/OCc1cccc(OC(F)(F)F)c1)C[C@@H]1[C@@H]2CC[C@]2(C)[C@@H](O)CC[C@@H]12 [CP-DM-4-63, 2-methoxy-6-(3-trifluoromethoxybenzyloxy)iminoestradiol] | – | 347 | 135 | 7.70 | 5.62 |
| COc1cc2c(cc1O)/C(=N/OCc1ccc(OC(F)(F)F)cc1)C[C@@H]1[C@@H]2CC[C@]2(C)[C@@H](O)CC[C@@H]12 [CP-DM-4-64, 2-methoxy-6-(4-trifluoromethoxybenzyloxy)iminoestradiol] | – | 2450 | 1580 | 6.56 | 4.81 |
| COc1cccc(CO/N=C2\C[C@@H]3[C@H](CC[C@]4(C)/C(=N/O)CC[C@@H]34)c3cc(OC)c(O)cc32)c1 [CP-DM-4-66, 2-methoxy-6-(3-methoxybenzyloxy)iminoestrone-17-oxime] | – | 10000 | – | – | – |
| COc1cc2c(cc1O)/C(=N/OCc1cccc(OC(F)(F)F)c1)C[C@@H]1[C@@H]2CC[C@]2(C)/C(=N/O)CC[C@@H]12 [CP-DM-4-67, 2-methoxy-6-(3-trifluoromethoxybenzyloxy)iminoestrone-17-oxime] | – | 10000 | – | – | – |
| CO/N=C1\CC[C@H]2[C@@H]3C/C(=N\OCc4ccc([N+](=O)[O-])cc4)c4cc(O)c(OC)cc4[C@H]3CC[C@]12C [CP-DM-4-75, 6-(4-nitrobenzyloxy)imino-2-methoxyestrone-17-methyloxime] | – | 2570 | – | – | – |
| COc1cc2c(cc1O)/C(=N/OCc1ccc(C)cc1)C[C@@H]1[C@@H]2CC[C@]2(C)/C(=N/O)CC[C@@H]12 [CP-DM-4-76, 2-methoxy-6-(4-methylbenzyloxy)iminoestrone-17-oxime] | – | 4270 | – | – | – |
| C[C@]12CC[C@@H]3c4ccc(O)cc4/C(=N/OCc4cc(F)cc(F)c4)C[C@H]3[C@@H]1C[C@@H](O)[C@@H]2O [CP-DM-4-88, 6-(3,5-difluorobenzyloxy)iminoestriol] | – | 15800 | – | – | – |
| C#C[C@]1(O)CC[C@H]2[C@@H]3C/C(=N\OCc4ccc([N+](=O)[O-])cc4)c4cc(O)ccc4[C@H]3CC[C@@]21C [CP-DM-4-89, 6-(4-nitrobenzyloxy)imino-17-ethinyl-estradiol] | – | – | 5620 | – | – |
